From patent US12570647B2 (Saint Louis University, priority 2021, dated 2026)
≈ marks a conversion by molar mass, not a printed value. Read-outs that look alike come from different tables or passages of the source.

Tests used:
Assay in all cases: S. aureus MIC80 determination, broth microdilution (CLSI) in CAMHB
Assay type in all cases: cell-based
[1] = test system: S. aureus AR217 (MRSA, multidrug-resistant strain); conditions: Table 2
Description: (§1) S. Aureus MIC80 determinations in S. aureus ATCC25923 or in multidrug-resistant strains AR215, AR217 and AR255. MIC80's were determined by the broth microdilution method recommended by the Clinical and Laboratory Standards Institute (CLSI) in Cation-adjusted Mueller-Hinton broth (CAMHB). (Cao et al., 2018). In the preliminary screening, three compound concentrations were used: 5.8, 20.4, and 71.4 μM; for quantitative MIC80 measurements, a 1.5-fold dilution series of the compounds was prepared in CAMHB. Overnight bacterial culture was added to the diluted compounds in a 96-well plate after adjusting the bacterial concentration to achieve a 5×10^5 CFU/mL final concentration. After 16-24 h incubation at 35±2° C., the plates were read at 600 nm in a microplate reader. The MIC80 was defined as the concentration of an antibacterial agent that inhibited bacteria growth ≥80% compared to vehicle-treated control cultures. All values were determined at least twice independently, and the average number is reported.
(§2) AR215, AR217, and AR222 were obtained from the Centers for Disease Control and Prevention (CDC). AR215 and AR217 are cefoxitin-screen positive (resistant to cefoxitin) and resistant to oxacillin, which are MRSA strains. AR215 is also resistant to clindamycin, erythromycin, levofloxacin, and penicillin. AR217 is also resistant to levofloxacin, penicillin, and Trimethoprim-sulfamethoxazole. AR222 is only resistant to penicillin.

[2] = test system: S. aureus AR215 (MRSA, multidrug-resistant strain); conditions: Table 2
Description: as §1, §2

[3] = test system: S. aureus AR222; conditions: Table 2
Description: as §1, §2

[4] = test system: S. aureus ATCC25923; conditions: S. aureus ATCC 25923
Description: as §1

Compound | MIC80 ([1]; Staphylococcus aureus, MRSA) | MIC80 ([2]; Staphylococcus aureus, MRSA) | MIC80 ([3]; Staphylococcus aureus) | MIC80 ([4]; Staphylococcus aureus, ATCC25923, Table 1, growth inhibition ≥80% vs vehicle, 16-24 h, read-out: ATCC 25923 MIC80) | MIC80 ([4]; Staphylococcus aureus, ATCC25923, Table 2, read-out: MIC80) | MIC80 [1] | MIC80 [2] | MIC80 [3] | MIC80 ([4]; Table 2, read-out: MIC80)
Cc1ccoc1C(=O)N(CCCn1ccnc1)c1nc2c(C)cc(Cl)cc2s1 [Example 15, N-(3-(1H-imidazol-1-yl)propyl)-N-(6-chloro-4-methylbenzo[d]thiazol-2-yl)-3-methylfuran-2-carboxamide] | 4 µM (≈ 1.66 µg/mL) | 13.3 µM (≈ 5.52 µg/mL) | 2.6 µM (≈ 1.08 µg/mL) | < 1.7 µM | 1.8 µM (≈ 0.747 µg/mL) |  |  |  | 
clorofloxacin [reference compound] |  |  |  |  |  | .30 µM | .66 µM | 0.52 µM | 40.52 µM
